Source: patent US5073562A, “Alkoxy-substituted dihydrobenzopyran-2-carboxylic acids and derivatives thereof” (G. D. Searle & Co., priority 1990, dated 1991)

How the values were obtained:
[1] = test system: Human neutrophils (LTB4 chemotaxis); experiment: Modified Boyden Chamber Chemotaxis, LTB4; assay type: cell-based; set-up: key to Chemotaxis LTB4, inactive at the dose tested: IA: Inactive at the dose tested; conditions: for Relative Potency, Chemotaxis LTB4: potency relative to the compound of Example 1(b), defined as 1.0, 3×10^-8 M LTB4, 40-90 minute, 37° C.
Experimental: (§1) Human neutrophils were isolated from citrated peripheral blood using standard techniques of dextran sedimentation, followed by centrifugation on Histopaque® sterile solution (Sigma) or Ficoll-paque® (Pharmacia) and hypotonic lysis of erythrocytes. A final cell suspension of 3.4×10^6 neutrophils/ml of HEPES-buffered Hanks' balanced salt solution (HBSS, pH 7.3) was added to the upper well (0.8 ml) of a modified Boyden chamber (blind well). […] The number of neutrophils migrating into the lower chamber in the absence of chemoattractant was subtracted from the number of cells migrating in the presence of a chemoattractant. Inhibition of chemotaxis by test compounds was expressed as percent inhibition relative to uninhibited control. […] Pat. No. 4,889,871.

[2] = test system: Human neutrophils (fMLP chemotaxis); experiment: Modified Boyden Chamber Chemotaxis, fMLP; assay type: cell-based; conditions: for Relative Potency, Chemotaxis fMLP: potency relative to the compound of Example 1(b), defined as 1.0
Experimental: as §1

LTB4 Receptor = target: T1, LTB4 Receptor (Homo sapiens, UniProt Q15722); experiment: LTB4 Receptor Binding Assay ((3H) LTB4, neutrophils); conditions: potency relative to the compound of Example 1(b), defined as 1.0, 0.6×10^-9 M (3H) LTB4, 0° C., 45 minutes
T1 construct: Neutrophils were purified from venous blood of normal human donors; endogenous in cells; host or cells: human peripheral blood neutrophils (purity >95%)
T1 sequence (Q15722 whole entry): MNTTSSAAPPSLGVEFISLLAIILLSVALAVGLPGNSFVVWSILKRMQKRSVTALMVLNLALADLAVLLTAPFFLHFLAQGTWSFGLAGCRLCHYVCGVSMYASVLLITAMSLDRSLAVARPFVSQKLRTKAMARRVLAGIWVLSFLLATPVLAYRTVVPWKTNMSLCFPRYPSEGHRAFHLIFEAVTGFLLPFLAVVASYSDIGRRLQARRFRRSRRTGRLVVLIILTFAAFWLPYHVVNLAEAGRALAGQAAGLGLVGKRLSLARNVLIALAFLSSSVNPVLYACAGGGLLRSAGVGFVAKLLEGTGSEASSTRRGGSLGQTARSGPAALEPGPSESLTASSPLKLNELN
Experimental: The incubation was carried out at 0° C. for 45 minutes and terminated by adding 5 ml of ice-cold HBSS followed by rapid filtration of the incubation mixture under vacuum through GF/C glass fiber filters. The filters were further washed with 10 ml HBSS and radioactivity was determined. […] All data refer to specific binding. […] Pat. No. 4,889,871.

Row | SMILES | IC50 ([1]; Homo sapiens, Neutrophil, value in parentheses, 3×10^-8 M LTB4) | IC50 ([2]; Homo sapiens, Neutrophil, value in parentheses) | Relative Potency, LTB4 Receptor Binding (LTB4 Receptor) | Relative Potency, Chemotaxis LTB4 [1] | Relative Potency, Chemotaxis fMLP [2] | Chemotaxis LTB4, inactive at the dose tested ([1]; dose not given, 3×10^-8 M LTB4)
1 | CCCc1c(OCCCOc2ccc(C(C)=O)c(OC)c2CCC)ccc2c1OC(C(=O)O)CC2 (centres unmarked) [Example 1(b), 7-[3-(4-acetyl-3-methoxy-2-propylphenoxy)propoxy]-3,4-dihydro-8-propyl-2H-1-benzopyran-2-carboxylic acid, reference compound] | 1.8 µM | 5.4 µM | – | – | – | –
2 | CCCc1c(OCCCOc2ccc(-c3cocn3)c(OC)c2CCC)ccc2c1OC(C(=O)O)CC2 (centres unmarked) [Example 5, 3,4-Dihydro-7-[3-[3-methoxy-4-(4-oxazolyl)-2-propylphenoxy]propoxy]-8-propyl-2H-1-benzopyran-2-carboxylic acid] | – | – | 4.0 | 2.2 | 0.73 | –
3 | CCCc1c(OCCCOc2ccc(-c3c[nH]c(SCc4ccccc4)n3)c(OC)c2CCC)ccc2c1OC(C(=O)O)CC2 (centres unmarked) [Example 8, 3,4-Dihydro-7-[3-[3-methoxy-4-[2-[(phenylmethyl)thio]-1H-imidazol-4-yl]-2-propylphenoxy]propoxy]-8-propyl-2H-1-benzopyran-2-carboxylic acid] | – | – | 2.65 | 1.86 | 2.0 | –
4 | CCCc1c(OCCCOc2ccc(-c3c[nH]cn3)c(OC)c2CCC)ccc2c1OC(C(=O)O)CC2 (centres unmarked) [Example 9] | – | – | 1.0 | 0.66 | 0.45 | –
5 | CCCc1c(OCCCOc2ccc(-c3csc(N)n3)c(OC)c2CCC)ccc2c1OC(C(=O)O)CC2 (centres unmarked) [Example 10, 7-[3-[4-(2-amino-4-thiazolyl)3-methoxy-2propylphenoxy]propoxy]3,4-dihydro-8-propyl-2H-1-benzopyran-2-carboxylic acid] | – | – | 1.56 | 0.63 | 1.4 | –
6 | CCCc1c(OCCCOc2ccc(-c3cscn3)c(OC)c2CCC)ccc2c1OC(C(=O)O)CC2 (centres unmarked) [Example 12, 3,4-dihydro-7-[3-[3-methoxy-2-propyl-4-(4-thiazolyl)phenoxy]-propoxy]-8-propyl-2H-1-benzopyran-2-carboxylic acid] | – | – | 4.5 | 3.0 | 1.1 | –
7 | CCCc1c(OCCCOc2ccc(-c3coc(C)n3)c(OC)c2CCC)ccc2c1OC(C(=O)O)CC2 (centres unmarked) [Example 14, 3,4-dihydro-7-[3-[3-methoxy-4-(2-methyl-4-oxazolyl)-2-propylphenoxy]propoxy]-8-propyl-2H-1-benzopyran-2-carboxylic acid] | – | – | 0.47 | < 0.1 | – | –
8 | C=CCc1c(OCCCOc2ccc3c(c2CCC)OC(C(=O)O)CC3)ccc(-c2cscn2)c1OC (centres unmarked) [Example 17, 3,4-dihydro-7-[3-[3-methoxy-2-(2-propenyl)-4-(4-thiazolyl)-phenoxy]propoxy]-8-propyl-2H-1-benzopyran-2-carboxylic acid] | – | – | 11.6 | 8.3 | 1.9 | –
9 | CCCc1c(OCCCOc2ccc(-c3csc(OC)n3)c(OC)c2CCC)ccc2c1OC(C(=O)O)CC2 (centres unmarked) [Example 24, 3,4-Dihydro-7-[3-[3-methoxy-4-(2-methoxy-4-thiazolyl)-2-propylphenoxy]propoxy]-8-propyl-2H-1-benzopyran-2-carboxylic acid] | – | – | 0.31 | < 0.23 | – | –
10 | CCCc1c(OCCCOc2ccc(-c3csc(=S)[nH]3)c(OC)c2CCC)ccc2c1OC(C(=O)O)CC2 (centres unmarked) [Example 26, 3,4-Dihydro-7-[3-[4-(2,3-dihydro-2-thioxo-4-thiazolyl)-3-methoxy-2-propylphenoxy]propoxy]-8-propyl-2H-1-benzopyran-2-carboxylic acid] | – | – | 0.51 | – | – | –
11 | CCCc1c(OCCCOc2ccc(-c3csc(SC)n3)c(OC)c2CCC)ccc2c1OC(C(=O)O)CC2 (centres unmarked) [Example 28] | – | – | 0.19 | 0.05 | – | –
12 | CCCc1c(OCCCOc2ccc(-c3csc(SCc4ccccc4)n3)c(OC)c2CCC)ccc2c1OC(C(=O)O)CC2 (centres unmarked) [Example 29] | – | – | 0.02 | – | – | IA
